Read-outs that look alike come from different tables or passages of the source.
Legend:
[1] = system: SMMC-7721 (human liver cancer) cells; assay: MTT cytotoxicity assay, SMMC-7721; format: cell-based; conditions: 48 h, mean of three independent assays
Excerpt: (§1) In the early 80s, scientists proposed anti-angiogenesis as a potential target in cancer therapy. Much research in the past 30 years has targeted tumor angiogenesis as a means of inhibiting the process of tumor-caused blood vessel formation. Endothelial cells, which come from the inner lining of blood vessels, makes up a fundamental part of new blood vessels as well as pre-existing ones. A complete angiogenesis process includes the proliferation, migration, and differentiation of endothelial cells, so a great deal of angiogenesis inhibitors discovered to date target endothelial cells. We thus employed a cell proliferation assay to evaluate the cytotoxicity of quinazoline derivatives against both normal (HUVEC) and tumor cell lines (CNE-2, PC-3, and SMMC-7721 cell lines) so we can screen some molecules that have cytotoxicity against tumor cells but low cytotoxicity against HUVECs. Meanwhile, an appropriate concentration range of these compounds could be determined to further study their inhibitive effects against the proliferation, migration, and differentiation of HUVECs. The cytotoxic activities of quinazoline derivatives against human tumor cell lines CNE-2 (human nasopharyngeal cancer), PC-3 (human prostatic carcinoma), SMMC-7721 (human liver cancer) and Human Umbilical Vein Endothelial Cells (HUVECs) were determined by using the MTT cytotoxicity assay.
(§2) HUVEC, CNE-2, PC-3, and 7721 cell lines were seeded on 96-well plates at a concentration of 5,000 cells per well and exposed to various concentrations of quinazoline derivatives. After 48 h of treatment at 37 °C in a humidified atmosphere of 5% CO2, 5 mg/mL MTT solution (10 μL) was added to each well and further incubated for 4 h. Each well was then added dimethyl sulfoxide (DMSO, 100 μL), and the optical density (OD) was recorded at 490 nm. All measurements were done in triplicate, and the IC50 values were derived from the mean OD values of the triplicate tests versus drug concentration curves.

[2] = system: PC-3 (human prostatic carcinoma) cells; assay: MTT cytotoxicity assay, PC-3; format: cell-based; conditions: Prostatic carcinoma cell, 48 h, mean of three independent assays
Excerpt: as §1, §2

[3] = MTT cytotoxicity assay, HUVEC; format: cell-based; conditions: human, HUVEC (human umbilical vein endothelial cells), mean of three independent assays
Excerpt: as §1, §2

[4] = system: HUVEC adhesion to collagen; assay: HUVEC adhesion assay on type I collagen; format: cell-based, human; conditions: adhesion of HUVEC on collagen, 37 °C; for inhibition at 15 µM / inhibition at 30 µM: Homo sapiens, HUVEC
Excerpt: A perfect angiogenesis inhibitor must be show lower toxicity toward HUVECs, while showing high inhibitive capability towards the proliferation, migration, and differentiation of HUVECs. To assess the inhibitory effects of 2,4-disubstituted quinazoline derivatives, three assays were used: HUVEC adhesion assay, HUVEC migration assay and CAM assay. Firstly, to test the inhibitory effects of quinazoline derivatives on the attachment of endothelial cells to type I collagen, cell adhesion assays were carried out.
Cell adhesion assay was carried out by a reported method with slight modification. Wells of a 96-well plate were coated at room temperature overnight with rat trail tendon collagen type I (2 μg) in PBS in a final volume of 100 μL. The wells were washed three times with PBS ([…]) and then blocked with 0.2% bovine serum albumin (BSA) in PBS ([…]) for 2 h at 37 °C in a cell culture incubator. The wells were then washed three times with PBS ([…]). HUEVCs were detached from the dish, resuspended in DMEM, and added (50 μL, 10^4 cells/mL) to each well followed by the related compounds (50 μL) at various concentrations. The plates were incubated for 1 h or 3 h at 37 °C and then washed three times with PBS (100 μL). The attached cells were fixed and stained with 0.2 % crystal violet in 20% methanol for 10 min, then washed three times with PBS ([…]). The cells were solubilized by 2% SDS and the OD was measured at 570 nm. Attachment was determined by both 1 and 3 h as described above. Each compound was tested in triplicate and each experiment was repeated three times.

[5] = system: CNE-2 (human nasopharyngeal cancer) cells; assay: MTT cytotoxicity assay, CNE-2; format: cell-based; conditions: 48 h, mean of three independent assays
Excerpt: as §1, §2

[6] = system: chick embryo chorioallantoic membrane (CAM); assay: CAM angiogenesis assay; format: in vivo; conditions: 30 μg/10 μL on filter disc, 48 h
Description: CAMs treated with 0.9% NaCl solution (negative control) were surrounded by all antoic vessels as newly-formed capillaries converging radially toward the sponge in a “spoked wheel” pattern (number of vessels 24 ± 3).
The in vivo CAM angiogenesis model as initially described by Folkman and then modified by Maragoudakis was used. Fertilized chicken eggs were used after incubating them for 8 days. A 1 cm × 1 cm window was made in the shell to create a pocket to expose the CAM. A filter disc with 0.9% NaCl solution or 30 μg/10 μL of compounds was then placed upon the CAM from 10 eggs per treatment and 48 h later, the CAMs were fixed with 4% paraformaldehyde and the vessel number from three random fields around the filter disc were pictured using a microscope.

[7] = 1 h, 1 h, 15 μM, read-out: 1 h Inhibition Rate % Dose 15 μM
[8] = 1 h, 1 h, 30 μM, read-out: 1 h Inhibition Rate % Dose 30 μM
[9] = 3 h, 3 h, 15 μM, read-out: 3 h Inhibition Rate % Dose 15 μM
[10] = 3 h, 3 h, 30 μM, read-out: 3 h Inhibition Rate % Dose 30 μM

| SMILES | melting point | IC50 [1] | IC50 [2] | IC50 at 48 h [3] | inhibition at 15 µM [4, 7] | inhibition at 30 µM [4, 8] | inhibition at 15 µM [4, 9] | inhibition at 30 µM [4, 10] | IC50 [5] | 3 h Inhibition Rate % Dose 15 μM ([4]; 3 h, 15 μM) | 3 h Inhibition Rate % Dose 30 μM ([4]; 3 h, 30 μM) | inhibition of angiogenesis in CAM assay [6] |
| --- | --- | --- | --- | --- | --- | --- | --- | --- | --- | --- | --- | --- |
| CCN(CC)CC(=O)Nc1ccccc1-c1nc(NCCCN(C)C)c2ccccc2n1 [Compound 10c, N-(2-(4-(3-(Dimethylamino)propylamino)quinazolin-2-yl)phenyl)-2-(diethylamino)acetamide] |  | 19.4 ± 0.1 µM | 17.6 ± 0.1 µM | 56.2 ± 0.2 µM | 18.9 ± 0.3% | 27.8 ± 0.2% | 16.4 ± 0.4% | 29.5 ± 0.1% | 17.1 ± 0.4 µM |  |  |  |
| CN(C)CCCNc1nc(-c2ccccc2NC(=O)CN2CCOCC2)nc2ccccc12 [Compound 10e, N-(2-(4-(3-(Dimethylamino)propylamino)quinazolin-2-yl)phenyl)-2-morpholinoacetamide] | 179 to 181 °C | 22.6 ± 0.2 µM | 20.5 ± 0.3 µM | 79.8 ± 0.1 µM |  | 14.3 ± 0.1% | 7.9 ± 0.3% | 17.6 ± 0.3% | 19.7 ± 0.2 µM |  |  |  |
| CN(C)CCCNc1nc(-c2ccccc2NC(=O)CCN2CCCC2)nc2ccccc12 [Compound 11b, N-(2-(4-(3-(Dimethylamino)propylamino)quinazolin-2-yl)phenyl)-3-(pyrrolidin-1-yl)propanamide] | 163 to 165 °C | 15.1 ± 0.2 µM | 17.4 ± 0.1 µM | 46.3 ± 0.3 µM | 35.4 ± 0.3% | 54.3 ± 0.3% | 35.2 ± 0.3% | 51.7 ± 0.2% | 14.3 ± 0.1 µM |  |  |  |
| CN(C)CCCNc1nc(-c2ccccc2NC(=O)CCCN2CCCC2)nc2ccccc12 [Compound 12b] |  | 15.3 ± 0.2 µM | 18.9 ± 0.4 µM | 39.4 ± 0.1 µM | 29.8 ± 0.1% | 49.3 ± 0.1% | 38.4 ± 0.2% | 60.1 ± 0.2% | 16.4 ± 0.3 µM |  |  |  |
| CN(C)CCCNc1nc(-c2ccccc2NC(=O)CCCN2CCOCC2)nc2ccccc12 [Compound 12e, N-(2-(4-(3-(Dimethylamino)propylamino)quinazolin-2-yl)phenyl)-4-morpholinobutanamide] | 152 to 154 °C | 20.8 ± 0.3 µM | 21.9 ± 0.2 µM | 76.3 ± 0.2 µM | 26.5 ± 0.2% | 34.7 ± 0.2% | 17.2 ± 0.4% | 39.4 ± 0.2% | 20.6 ± 0.2 µM |  |  |  |

Now from value to molecule, other results behind:

| melting point | SMILES | IC50 [1] | IC50 [2] | IC50 at 48 h [3] | inhibition at 15 µM [4, 7] | inhibition at 30 µM [4, 8] | inhibition at 15 µM [4, 9] | inhibition at 30 µM [4, 10] | IC50 [5] | 3 h Inhibition Rate % Dose 15 μM ([4]; 3 h, 15 μM) | 3 h Inhibition Rate % Dose 30 μM ([4]; 3 h, 30 μM) | inhibition of angiogenesis in CAM assay [6] |
| --- | --- | --- | --- | --- | --- | --- | --- | --- | --- | --- | --- | --- |
| 180 to 182 °C | CN(C)CCCNc1nc(-c2ccccc2NC(=O)CN2CCCCC2)nc2ccccc12 [Compound 10a, N-(2-(4-(3-(Dimethylamino)propylamino)quinazolin-2-yl)phenyl)-2-(piperidin-1-yl)acetamide] | 18.1 ± 0.2 µM | 16.8 ± 0.1 µM | 45.7 ± 0.2 µM | 26.7 ± 0.1% | 31.6 ± 0.3% | 29.2 ± 0.2% | 37.6 ± 0.1% | 13.6 ± 0.2 µM |  |  |  |
| 174 to 175 °C | CN(C)CCCNc1nc(-c2ccccc2NC(=O)CN2CCCC2)nc2ccccc12 [Compound 10b, N-(2-(4-(3-(dimethylamino)propylamino)quinazolin-2-yl)phenyl)-2-(pyrrolidin-1-yl)acetamide] | 17.9 ± 0.4 µM | 16.7 ± 0.2 µM | 39.3 ± 0.3 µM | 28.3 ± 0.1% | 33 ± 0.2% | 27.8 ± 0.2% | 34.8 ± 0.2% | 14.9 ± 0.2 µM |  |  |  |
| 174 to 175 °C | CN(C)CCCNc1nc(-c2ccccc2NC(=O)CN2CCN(C)CC2)nc2ccccc12 [Compound 10d, N-(2-(4-(3-(Dimethylamino)propylamino)quinazolin-2-yl)phenyl)-2-(4-methylpiperazin-1-yl)acetamide] | 10.4 ± 0.1 µM | 11.3 ± 0.5 µM | 38.7 ± 0.1 µM | 34.8 ± 0.2% | 44.6 ± 0.4% |  | 63.4% | 10.5 ± 0.3 µM | 32.5 ± 0.4% | 47.2 ± 0.1% |  |
| 178 to 179 °C | CN(C)CCCNc1nc(-c2ccccc2NC(=O)CCN2CCCCC2)nc2ccccc12 [Compound 11a, N-(2-(4-(3-(Dimethylamino)propylamino)quinazolin-2-yl)phenyl)-3-(piperidin-1-yl)propanamide] | 19.9 ± 0.4 µM | 18.1 ± 0.2 µM | 57.4 ± 0.5 µM | 37.4 ± 0.3% | 49.6 ± 0.5% | 38.2 ± 0.1% | 59.3 ± 0.1% | 14.2 ± 0.1 µM |  |  |  |
| 158 to 160 °C | CCN(CC)CCC(=O)Nc1ccccc1-c1nc(NCCCN(C)C)c2ccccc2n1 [Compound 11c, N-(2-(4-(3-(Dimethylamino)propylamino)quinazolin-2-yl)phenyl)-3-(diethylamino)propanamide] | 13.8 ± 0.1 µM | 18.7 ± 0.3 µM | 66.8 ± 0.3 µM | 29.9 ± 0.2% | 38.7 ± 0.2% | 29.4 ± 0.2% | 36.3 ± 0.4% | 16.8 ± 0.4 µM |  |  |  |
| 165 to 167 °C | CN(C)CCCNc1nc(-c2ccccc2NC(=O)CCN2CCOCC2)nc2ccccc12 [Compound 11e, N-(2-(4-(3-(Dimethylamino)propylamino)quinazolin-2-yl)phenyl)-3-morpholinopropanamide] | 20.9 ± 0.3 µM | 19.6 ± 0.2 µM | 84.9 ± 0.3 µM | 27.4 ± 0.3% | 32.3 ± 0.2% | 25.6 ± 0.3% | 36.4 ± 0.3% | 20.1 ± 0.2 µM |  |  |  |
| 159 to 160 °C | CN(C)CCCNc1nc(-c2ccccc2NC(=O)CCCN2CCCCC2)nc2ccccc12 [Compound 12a, N-(2-(4-(3-(Dimethylamino)propylamino)quinazolin-2-yl)phenyl)-4-(piperidin-1-yl)butanamide] | 16.5 ± 0.1 µM | 17.7 ± 0.2 µM | 41.7 ± 0.3 µM | 33.6 ± 0.2% | 57.9 ± 0.3% | 40.6 ± 0.3% | 61.2 ± 0.3% | 17.3 ± 0.3 µM |  |  |  |
| 155 to 157 °C | CN(C)CCCNc1nc(-c2ccccc2NC(=O)CCCN2CCN(C)CC2)nc2ccccc12 [Compound 12d, N-(2-(4-(3-(Dimethylamino)propylamino)quinazolin-2-yl)phenyl)-4-(4-methylpiperazin-1-yl)butanami-de] | 10.3 ± 0.5 µM | 10.9 ± 0.2 µM | 40.2 ± 0.2 µM | 46.8 ± 0.2% | 63.7 ± 0.2% | 47.5 ± 0.3% | 63.4 ± 0.3% | 11.4 ± 0.1 µM |  |  | excellent inhibition of angiogenesis |
